# Experimental data published in article PMC4741190, “Crystal structure of the flavoenzyme PA4991 from Pseudomonas aeruginosa” (Acta Crystallographica. Section F, Structural Biology …, 2016).
# Target: T1, PA4991 (Pseudomonas aeruginosa, UniProt Q9HUH4)
# T1 construct: N-terminal His6 tag cut with TEV protease; expressed in E. coli BL21(DE3)
# T1 sequence (Q9HUH4 1-391): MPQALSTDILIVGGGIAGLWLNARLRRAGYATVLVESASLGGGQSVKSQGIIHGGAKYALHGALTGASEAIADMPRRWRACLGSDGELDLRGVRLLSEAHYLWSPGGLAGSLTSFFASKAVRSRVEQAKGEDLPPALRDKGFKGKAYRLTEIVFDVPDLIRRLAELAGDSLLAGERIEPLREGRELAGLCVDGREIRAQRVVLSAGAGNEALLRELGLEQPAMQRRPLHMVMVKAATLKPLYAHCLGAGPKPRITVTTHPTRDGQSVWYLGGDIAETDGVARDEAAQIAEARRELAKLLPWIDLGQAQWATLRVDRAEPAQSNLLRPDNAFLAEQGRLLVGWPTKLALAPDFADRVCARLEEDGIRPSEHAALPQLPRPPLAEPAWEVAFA
# Assay: X-ray crystal structure, […] A; UV-visible spectrum
# Type: binding
# Settings: noncovalent; co-purified cofactor, extended conformation; crystals pH 8.5, soaked in 1 mM phenylmercuric chloride
smiles,measurement,value
Cc1cc2nc3c(=O)[nH]c(=O)nc-3n(C[C@H](O)[C@H](O)[C@H](O)COP(=O)(O)OP(=O)(O)OC[C@H]3O[C@@H](n4cnc5c(N)ncnc54)[C@H](O)[C@@H]3O)c2cc1C [FAD],"X-ray crystal structure, 2.40 A; UV-visible spectrum",FAD is bound noncovalently to PA4991 in an extended conformation
